Laboratory results taken from US4710578A, “Isothiuronium salts” (Peremartoni Vegyipari Vallalat, priority 1984, dated 1987).

Experiments:
[1] = tested on: neutrophilic granulocytes, lymphocytes and macrophages; assay: Preliminary rapid test: immunostimulant effect; assay type: in vivo, CFLP male mice; details: oral, one-tenth of LD50; 24 hours
[2] = in vivo
[3] = tested on: neutrophylic granulocytes and limphocytes; details: mouse, in vivo, po
[4] = tested on: NK-ly-ascites lymphoma; assay: NK-ly-ascites lymphoma in vivo; parameters: species or system CFLP male mice; details: for Activity against NK-ly-ascites tumor: concentration below one-tenth of the LD50 value; for Survival rate and lifetime: dose-dependant
[5] = tested on: NK-yl ascites tumor; assay: Combinations with known cytostatic agents in NK-ly ascites tumor; assay type: in vivo, CFLP mice; details: with cyclophosphamide, carnomustine, degranol, dibromo dulcitol or dibromo mannitol

Structure (SMILES) | Immunostimulant effect [1] | LD50 at 24 h ([2]; po) | Toxic effect [3] | Activity against NK-ly-ascites tumor [4] | Survival rate and lifetime [4] | LD50 at 24 h ([2]; ip) | Antitumor effect of combination vs cytostatic agent alone [5] | Immunodepression of combination vs cytostatic agent alone [5]
CCCCSC(=N)NC(=N)N [Example 25, N-aminoiminomethyl-S-n-butyl-isothiuronium bromide] | medium (Medium effect is observed if the increase of cell number or activity over the control amounts to 20%) | 2700 ± 310 mg/kg | 0 |  |  |  |  | 
C=CCN=C(NC(=N)N)SCC=C [Example 45, N-(Aminoiminomethyl)-N'-Allyl-S-Allyl-Isothiuronium Bromide] | weak | 380 ± 41 mg/kg | 0 | active agains Nk-ly-ascites tumor in a concentration below one-tenth of the LD50 value | increase survival rate and lifetime in a dose-dependant manner | 36 ± 4 mg/kg | the antitumor effect was strengthened | immunodepression decreased
C=CCSC(=NC)NC(=N)N [Example 20, N-Aminoiminomethyl-N'-Methyl-S-Allyl-Isothiuronium Chloride] | weak | 600 ± 54 mg/kg | 0 | active agains Nk-ly-ascites tumor in a concentration below one-tenth of the LD50 value | increase survival rate and lifetime in a dose-dependant manner | 75 ± 6.3 mg/kg |  | 
CCSC(=N)NC(=N)N [Example 23, N-aminoiminomethyl-S-ethyl-isothiuronium bromide] | strong (The effect is strong if the increase of the cell number and activity of the immune system is more than 20% higher than the control) | 3080 ± 290 mg/kg | 0 |  |  |  |  | 
N=C(N)NC(=N)SCCCO [Example 29, N-aminoiminomethyl-S-(3-hydroxy-propyl)-isothiuronium bromide] | medium (Medium effect is observed if the increase of cell number or activity over the control amounts to 20%) | 2860 ± 180 mg/kg | 0 |  |  |  |  | 
C=CCSC(=NC(C)C)NC(=N)N [Example 21, N-aminoiminomethyl-N'-Isopropyl-S-Allyl-Isothiuronium Chloride] | weak | 280 ± 26 mg/kg | 0 |  |  | 32 ± 4 mg/kg |  | 
CCCSC(=N)NC(=N)N [Example 10, N-Aminoiminomethyl-S-n-Propyl-Isothuronium Bromide] | medium (Medium effect is observed if the increase of cell number or activity over the control amounts to 20%) | 2800 ± 260 mg/kg | 0 |  |  |  |  | 
CSC(=N)NC(=N)N [Example 9, N-Aminoiminomethyl-S-Methyl-Isothiuronium Iodide] | medium (Medium effect is observed if the increase of cell number or activity over the control amounts to 20%) | 2320 ± 220 mg/kg |  |  |  |  |  | 
C#CCSC(=N)NC(=N)N [Example 31, N-aminoiminomethyl-S-propargyl-isothuronium bromide] |  | 90 mg/kg |  |  |  |  |  | 
C=C(C)CSC(=N)NC(=N)N [Example 44, N-(Aminoiminomethyl)-S-Metallyl-Isothiuronium-Bromide] | medium (Medium effect is observed if the increase of cell number or activity over the control amounts to 20%) | 1640 ± 210 mg/kg | 0 |  |  |  |  | 
CC(C)CCSC(=N)NC(=N)N [Example 26, N-aminoiminomethyl-S-isoamyl-isothiuronium bromide] | medium (Medium effect is observed if the increase of cell number or activity over the control amounts to 20%) | 2260 ± 241 mg/kg | 0 |  |  |  |  | 
CC(C)SC(=N)NC(=N)N [Example 24, N-aminoiminomethyl-S-isopropyl-isothiuronium bromide] | medium (Medium effect is observed if the increase of cell number or activity over the control amounts to 20%) | 2260 ± 210 mg/kg | 0 |  |  |  |  | 
